Results: the supplement of paper PMC8253809

Key:
HGGX42 [1] = H3.3 G34R paediatric high-grade glioma line; test: EC50 (inflection of fitted growth-inhibition curve) (log10 M)
Outline: (§1)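 Viability readout was CellTiter-Glo luminescence, log2-transformed, normalised per plate to % activity between negative (solvent) and positive control wells, then pooled. This followed a 7-day exposure (3 days for iAstro) at 37 °C, 5% CO2 to a 10-point threefold dilution series (mean top concentration 35 μM), pin-tool delivered in triplicate to patient-derived pHGG/DIPG cell lines and astrocyte controls on 1% Geltrex-coated 384-well plates. Three- and four-parameter log-logistic fits were compared, and the one with the lowest AICc supplied EC50 and maximal response (yFin).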

HGGX6 [2] = H3.3 G34R paediatric high-grade glioma line; test: as above
Outline: as §1

DIPGX29 [3] = H3.3 K27M diffuse intrinsic pontine glioma line; test: as above
Outline: as §1

DIPGX37 [4] = H3.3 K27M diffuse intrinsic pontine glioma line; test: as above
Outline: as §1

SUDIPGIV [5] = diffuse intrinsic pontine glioma line; test: as above
Outline: as §1

HGGX2 [6] = paediatric high-grade glioma line; test: as above
Outline: as §1

SUDIPGXXI [7] = diffuse intrinsic pontine glioma line; test: as above
Outline: as §1

iAstro [8] = astrocyte control; test: as above
Outline: as §1

DIPGX7 [9] = H3.3 K27M diffuse intrinsic pontine glioma line; test: as above
Outline: as §1

SUDIPGXVII [10] = diffuse intrinsic pontine glioma line; test: as above
Outline: as §1

DIPGX9 [11] = diffuse intrinsic pontine glioma line; test: as above
Outline: as §1

HABS [12] = astrocyte control; test: as above
Outline: as §1

SUDIPGVI [13] = diffuse intrinsic pontine glioma line; test: as above
Outline: as §1

SUDIPGXIII [14] = diffuse intrinsic pontine glioma line; test: as above
Outline: as §1

HGGX39 [15] = paediatric high-grade glioma line; test: as above
Outline: as §1

HGGX42 [16] = test: area under dose-response curve of % growth inhibition (log2 RLU vs DMSO / staurosporine), 1e-11 to 1e-4 M (% x log10 M); higher = more growth inhibition
Outline: (§2)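 Patient-derived pHGG/DIPG cell lines and astrocytes, cultured on 384-well plates with a 1% Geltrex coating, were given a 10-point threefold dilution series (mean top concentration 35 μM) in triplicate for 7 days (iAstro 3 days) at 37 °C, 5% CO2. CellTiter-Glo signal, log2-transformed and normalised per plate to % activity against solvent and positive controls, was fitted with a log-logistic curve or, where the sigmoid fit failed, a smoothing spline. Area under the curve was then computed by the trapezoid rule.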

HGGX6 [17] = test: as above
Outline: as §2

DIPGX29 [18] = test: as above
Outline: as §2

DIPGX37 [19] = test: as above
Outline: as §2

SUDIPGIV [20] = test: as above
Outline: as §2

HGGX2 [21] = test: as above
Outline: as §2

SUDIPGXXI [22] = test: as above
Outline: as §2

iAstro [23] = test: as above
Outline: as §2

DIPGX7 [24] = test: as above
Outline: as §2

SUDIPGXVII [25] = test: as above
Outline: as §2

DIPGX9 [26] = test: as above
Outline: as §2

SUDIPGXIX = diffuse intrinsic pontine glioma line; test: as above
Outline: as §2

HABS [27] = test: as above
Outline: as §2

SUDIPGVI [28] = test: as above
Outline: as §2

SUDIPGXIII [29] = test: as above
Outline: as §2

HGGX39 [30] = test: as above
Outline: as §2

Row | Structure (SMILES) | EC50 (log10 M) (HGGX42 [1]) | EC50 (log10 M) (HGGX6 [2]) | EC50 (log10 M) (DIPGX29 [3]) | EC50 (log10 M) (DIPGX37 [4]) | EC50 (log10 M) (SUDIPGIV [5]) | EC50 (log10 M) (HGGX2 [6]) | EC50 (log10 M) (SUDIPGXXI [7]) | EC50 (log10 M) (iAstro [8]) | EC50 (log10 M) (DIPGX7 [9]) | EC50 (log10 M) (SUDIPGXVII [10]) | EC50 (log10 M) (DIPGX9 [11]) | EC50 (log10 M) (HABS [12]) | EC50 (log10 M) (SUDIPGVI [13]) | EC50 (log10 M) (SUDIPGXIII [14]) | EC50 (log10 M) (HGGX39 [15]) | area under dose-response curve (HGGX42 [16]) | area under dose-response curve (HGGX6 [17]) | area under dose-response curve (DIPGX29 [18]) | area under dose-response curve (DIPGX37 [19]) | area under dose-response curve (SUDIPGIV [20]) | area under dose-response curve (HGGX2 [21]) | area under dose-response curve (SUDIPGXXI [22]) | area under dose-response curve (iAstro [23]) | area under dose-response curve (DIPGX7 [24]) | area under dose-response curve (SUDIPGXVII [25]) | area under dose-response curve (DIPGX9 [26]) | area under dose-response curve (SUDIPGXIX) | area under dose-response curve (HABS [27]) | area under dose-response curve (SUDIPGVI [28]) | area under dose-response curve (SUDIPGXIII [29]) | area under dose-response curve (HGGX39 [30])
1 | O=C(Nc1ccc(Nc2nccc(Nc3cc(C4CCCC4)[nH]n3)n2)cc1)Nc1cccc(C(F)(F)F)c1 [CD532] | -6.66 | -6.3 | -6.34 | -6.42 | -6.47 | -6.21 | -7.24 | -6.36 | -6.51 | -6.47 | -6.65 | -5.37 | -6.5 | -6.36 | -5.92 | 271 | 202 | 221 | 238 | 276 | 246 | 352 | 213 | 282 | 247 | 305 | 283 | 174 | 272 | 235 | 200
2 | Cc1ccc2nc(NCCN)c3ncc(C)n3c2c1 | -5 | -4.92 | -4.95 | -4.96 | -4.93 | -5.19 | -5.23 | -5.39 | -4.87 | -4.88 | -5.01 | -4.94 | -4.96 | -4.89 | -4.91 | 83.7 | 75.1 | 94.6 | 93.7 | 113 | 54.2 | 143 | 35.1 | 96.7 | 78.2 | 99.8 | 79.1 | 54.2 | 67 | 89.5 | 52.5
3 | O=C(c1ccc(Nc2nccc(-c3cc4ccccc4s3)n2)cc1)N1CCC(N2CCCC2)CC1 [IKK 16] | -5.62 | -4.83 | -5.53 | -5.52 | -5.15 | -5.4 | -5.37 | -5.16 | -5.27 | -4.85 | -4.84 | -4.75 | -4.85 | -4.69 | -4.92 | 187 | 88.2 | 180 | 183 | 132 | 146 | 165 | 110 | 155 | 108 | 105 | 127 | 93.1 | 111 | 107 | 137
